Where “and” joins values, the source holds several entries; their conditions need not be identical. Equal entries are not always repeated. Entries after “also recorded” stand apart in the source; their conditions may differ. Marks after values point to notes of the source that are not given here.
Columns and labels:
HEXIM1 mRNA = assay: Change from baseline in gene expression, HEXIM1; assay type: in vivo, human; settings: patients; by dose
Procedure: (§1) Summary changes from baseline in the expression of BET-regulated genes were assessed in tumor tissues and blood collected at baseline and multiple on-treatment time points after BMS-986158 administration following the 3 dosing schedules. The study also assessed summary percent changes from baseline in expression of BET-regulated genes in peripheral blood and tumors (such as HEXIM1 and C-MYC). Tissue and peripheral blood samples (at baseline and on treatment) were collected for genomic, transcriptomic, and epigenetic analyses (by DNA or mRNA) to assess pharmacodynamic changes in BET-regulated genes. These samples were analyzed using whole-exome sequencing, real-time quantitative polymerase chain reaction, and RNA-sequencing methods.
(§2) All treated patients with available biomarker measurements at baseline and ≥1 time point were included in the biomarker analyses. Blood and tumor tissue samples were collected at baseline, during treatment, and at end of treatment for biomarker analysis. Markers of selected BET-regulated genes (e.g., HEXIM1) were analyzed with summary statistics for percent changes in expression from available matched pre- and on-treatment samples over time relative to baseline. Statistically significant changes in gene expression were determined using the Benjamini–Hochberg procedure to calculate an adjusted p value with an α level of 0.05.

[1] = system: patient-derived xenograft models; design: method as in PMID 34543572; settings: mouse, low doses; 9 of 19 models; cited from earlier work
advanced solid tumors = assay: Preliminary antitumor activity (RECIST 1.1 best overall response, ORR, PFS, OS); assay type: in vivo, human
Procedure: Best overall response was defined as a complete response (CR), partial response (PR), stable disease (SD), or progressive disease per RECIST 1.1 (solid tumors). […] Patients who had SD or better as their best overall response were classified as having achieved clinical benefit. These criteria must have been met at 1 time point and ≥1 subsequent time point(s) (the first of which was within 28 days of the initial time point). PFS was determined as the time from the first dose of study medication to the date of the first objective documentation of tumor progression or death due to any cause. All treated patients who received ≥1 dose of BMS-986158 were evaluated in the safety population. […] All treated patients with available and sufficient serum or plasma samples for the corresponding analytes were included in the PK analyses. […] ECG parameters were evaluated in a categorical analysis, and linear mixed-effects regression modeling was used to describe the quantitative relationship between ΔQTcF and time-matched serum concentrations of BMS-986158 or its metabolite at a single dose. Descriptive summary statistics, including means and 95% CIs, were calculated using the Clopper-Pearson method for ORR and Kaplan–Meier method for PFS and OS. During dose escalation, an mTPI design targeted a 27% DLT rate to guide escalation decisions and the MTD selection. In the dose-escalation segment, the target enrollment was up to 30 patients per schedule and 3–13 DLT-evaluable patients at a dose level, with an aim to determine the MTD. The totality of the data, including PK, pharmacodynamics, and patient overall safety, including at lower dose levels, was also used to select the RP2D.

BET-regulated genes = assay: Transcriptional changes in matched pre- and on-treatment samples; assay type: in vivo, human; settings: of >18,000 genes measured; Benjamini–Hochberg–adjusted p < 0.05; 41 patients
Procedure: as §1, §2

[2] = Schedule A (5 days on, 2 days off), n = 46
[3] = Schedule B (14 days on, 7 days off), n = 8
[4] = Schedule C (7 days on, 14 days off), n = 29

For Cc1nnn(C)c1-c1cnc2c3ccc(C(C)(C)O)cc3n([C@H](c3ccccc3)C3CCOCC3)c2c1 [BMS-986158], the “HEXIM1 mRNA expression change from baseline” value (HEXIM1 mRNA) is listed as “dose dependently upregulated; also recorded: transcriptional activation”, the “Patient-derived xenograft models with antitumor activity” value [1] is listed as 47% and the “Patients with clinical benefit” value (advanced solid tumors; 4.5-mg dose on schedule A (9/14)) is listed as 64%. For the same compound, the OS rate (advanced solid tumors; 6 months, Schedule A) was 52.6%, the OS rate (advanced solid tumors; 6 months, Schedule C) was 48.4% and the OS rate, n (95% CI) (advanced solid tumors; 6 months, Schedule A (5 days on, 2 days off), n = 46) was 52.6%. For the same compound, the OS rate, n (95% CI) (advanced solid tumors; 6 months, Schedule C (7 days on, 14 days off), n = 29) was 48.4%, the OS rate (advanced solid tumors; 12 months, Schedule A) was 34.3% and the OS rate (advanced solid tumors; 12 months, Schedule C) was 30.8%. For the same compound, the OS rate, n (95% CI) (advanced solid tumors; 12 months, Schedule A (5 days on, 2 days off), n = 46) was 34.3%, the OS rate, n (95% CI) (advanced solid tumors; 12 months, Schedule C (7 days on, 14 days off), n = 29) was 30.8% and the “PFS rate, range depending on treatment schedule” value (advanced solid tumors; 24 weeks) was 13.5–42.9%. The PFS rate, n (95% CI) (advanced solid tumors; 24 weeks, Schedule A (5 days on, 2 days off), n = 46) was 18.1%, the PFS rate, n (95% CI) (advanced solid tumors; 24 weeks, Schedule B (14 days on, 7 days off), n = 8) was 42.9% and the PFS rate, n (95% CI) (advanced solid tumors; 24 weeks, Schedule C (7 days on, 14 days off), n = 29) was 13.5%. For the same compound, the “PFS rate, range depending on treatment schedule” value (advanced solid tumors; 48 weeks) was 6.8–14.3%, the PFS rate, n (95% CI) (advanced solid tumors; 48 weeks, Schedule A (5 days on, 2 days off), n = 46) was 10.3% and the PFS rate, n (95% CI) (advanced solid tumors; 48 weeks, Schedule B (14 days on, 7 days off), n = 8) was 14.3%. The PFS rate, n (95% CI) (advanced solid tumors; 48 weeks, Schedule C (7 days on, 14 days off), n = 29) was 6.8%, the “Patients with clinical benefit” value (advanced solid tumors; NUT carcinoma (4/7)) was 57.1% and the “Best overall response unable to be determined” value (from here on “Best overall response unable”) (advanced solid tumors; Schedule A) was 17.4%. For the same compound, the Stable disease rate (advanced solid tumors; Schedule A) was 26.1%, the “Best overall response by investigator: complete response” value (advanced solid tumors; [2]) was 0 n (%) and the “Best overall response by investigator: partial response” value (advanced solid tumors; [2]) was 2 (4.3) ^a n (%). The “Best overall response by investigator: progressive disease” value (advanced solid tumors; [2]) was 24 (52.2) n (%), the “Best overall response by investigator: stable disease” value (advanced solid tumors; [2]) was 12 (26.1) n (%) and the “Best overall response by investigator: unable to determine” value (shortened to “Best overall response … to determine”) (advanced solid tumors; [2]) was 8 (17.4) ^b n (%). The “Median OS (95% CI)” value (advanced solid tumors; [2]) was 7.52 (4.17–11.99) months, the “Median PFS (95% CI)” value (advanced solid tumors; [2]) was 8.29 (7.14–9.71) weeks and the “ORR (95% CI)” value (advanced solid tumors; [2]) was 2%. For the same compound, the “Patients with a partial response” value (advanced solid tumors; Schedule A, 4.5-mg starting dose (ovarian cancer, NUT carcinoma)) was 2 patients, the “Patients achieving clinical benefit” value (advanced solid tumors; Schedule A, all doses) was 30% and 30.4% and the “Best overall response unable” value (advanced solid tumors; Schedule B) was 12.5%. The Stable disease rate (advanced solid tumors; Schedule B) was 37.5%, the “Best overall response by investigator: complete response” value (advanced solid tumors; [3]) was 0 n (%) and the “Best overall response by investigator: partial response” value (advanced solid tumors; [3]) was 0 n (%). For the same compound, the “Best overall response by investigator: progressive disease” value (advanced solid tumors; [3]) was 4 (50.0) n (%), the “Best overall response by investigator: stable disease” value (advanced solid tumors; [3]) was 3 (37.5) n (%) and the “Best overall response … to determine” value (advanced solid tumors; [3]) was 1 (12.5) ^c n (%). The “Median OS (95% CI)” value (advanced solid tumors; [3]) was 9.23 (2.79–11.83) months, the “Median PFS (95% CI)” value (advanced solid tumors; [3]) was 8.43 (5.57–40.14) weeks and the “ORR (95% CI)” value (advanced solid tumors; [3]) was 0 (0.0–36.9) %. The “Best overall response unable” value (advanced solid tumors; Schedule C) was 17.2%, the Stable disease rate (advanced solid tumors; Schedule C) was 31.0% and the “Best overall response by investigator: complete response” value (advanced solid tumors; [4]) was 0 n (%). For the same compound, the “Best overall response by investigator: partial response” value (advanced solid tumors; [4]) was 0 n (%), the “Best overall response by investigator: progressive disease” value (advanced solid tumors; [4]) was 15 (51.7) n (%) and the “Best overall response by investigator: stable disease” value (advanced solid tumors; [4]) was 9 (31.0) n (%). The “Best overall response … to determine” value (advanced solid tumors; [4]) was 5 (17.2) ^d n (%), the “Median OS (95% CI)” value (advanced solid tumors; [4]) was 5.32 (3.52–11.83) months and the “Median PFS (95% CI)” value (advanced solid tumors; [4]) was 9.00 (7.86–13.29) weeks. The “ORR (95% CI)” value (advanced solid tumors; [4]) was 0 (0.0–11.9) %, the “Patients with SD or better” value (advanced solid tumors; across treatment schedules and doses (n = 26)) was 31.3% and the “Patients with clinical benefit” value (advanced solid tumors; adenoid cystic carcinoma (4/4)) was 100%. The Complete response (advanced solid tumors; all schedules) was “No patients experienced a CR”, the “Tumor marker CA 125 level after treatment initiation” value (advanced solid tumors; one patient, ovarian cancer, 4.5 mg schedule A, 3032 U/mL prior to C1D1) was “decreased and remained stable; also recorded: decreased and stabilized” and the “Duration of partial response on study treatment” value (advanced solid tumors; one patient, serous papillary ovarian cancer, 4.5 mg schedule A) was 155 days. The “Reduction in tumor burden” value (advanced solid tumors; one patient, serous papillary ovarian cancer, 4.5 mg schedule A, PR at day 170) was 35%, the “PFS, range depending on treatment schedule” value (advanced solid tumors; schedules A, B, C) was 8.29–9.00 weeks and the “Progressive disease as best response, range across treatment schedules” value (advanced solid tumors; schedules A, B, C) was 50.0–52.2%. The “Patients with clinical benefit” value (advanced solid tumors; uveal melanoma (3/5)) was 60% and the “Genes with significant changes in expression” value (BET-regulated genes) was 4500.

Reference: PMC9454848, “BMS-986158, a Small Molecule Inhibitor of the Bromodomain and Extraterminal Domain Proteins, in Patients with Selected Advanced Solid Tumors: Results from a Phase 1/2a Trial” (Cancers, 2022)
